The values below are quoted from earlier work in patent US20080318919A1, “Cefquinome Compositions and Methods of Their Use” (Intervet International B.V., priority 2005, published 2008).

This series has as its system Mannheimia haemolytica. The conditions noted are these: concentration that inhibits the growth of 90% of the target pathogen.

As to `CO/N=C(\C(=O)N[C@@H]1C(=O)N2C(C(=O)[O-])=C(C[n+]3cccc4c3CCCC4)CS[C@H]12)c1csc(N)n1` [cefquinome, Cefquinome], the MIC90 entry is “about 0.25 μg/ml”.
